Measurements taken from the NIST ThermoML archive (doi:10.1016/j.jct.2012.05.003).

Conditions: for molar entropy: Vacuum adiabatic calorimetry

O=C1c2ccccc2-c2ccccc21 [9(9H)-fluorenone]
Conditions | molar entropy [J/K/mol] | vapor or sublimation pressure [kPa]
5 K, 101.33 kPa, Crystal | 0.2 | –
10 K, 101.33 kPa, Crystal | 1.47 | –
20 K, 101.33 kPa, Crystal | 7.81 | –
30 K, 101.33 kPa, Crystal | 16.59 | –
40 K, 101.33 kPa, Crystal | 26.02 | –
50 K, 101.33 kPa, Crystal | 35.44 | –
60 K, 101.33 kPa, Crystal | 44.68 | –
70 K, 101.33 kPa, Crystal | 53.57 | –
80 K, 101.33 kPa, Crystal | 62.15 | –
90 K, 101.33 kPa, Crystal | 70.45 | –
100 K, 101.33 kPa, Crystal | 78.48 | –
120 K, 101.33 kPa, Crystal | 93.91 | –
140 K, 101.33 kPa, Crystal | 108.7 | –
160 K, 101.33 kPa, Crystal | 123.08 | –
180 K, 101.33 kPa, Crystal | 137.18 | –
200 K, 101.33 kPa, Crystal | 151.1 | –
220 K, 101.33 kPa, Crystal | 164.93 | –
240 K, 101.33 kPa, Crystal | 178.73 | –
260 K, 101.33 kPa, Crystal | 192.51 | –
280 K, 101.33 kPa, Crystal | 206.3 | –
298.15 K, 101.33 kPa, Crystal | 218.82 | –
300 K, 101.33 kPa, Crystal | 220.1 | –
320 K, 101.33 kPa, Crystal | 233.91 | –
340 K, 101.33 kPa, Crystal | 247.73 | –
340 K, 101.33 kPa, Liquid | 291.47 | –
356.52 K, 101.33 kPa, Crystal | 259.19 | –
356.52 K, 101.33 kPa, Liquid | 305.07 | –
360 K, 101.33 kPa, Liquid | 307.89 | –
368.12 K, Liquid, Inclined piston gauge | – | 0.0161
378.12 K, Liquid, Inclined piston gauge | – | 0.0308
380 K, 101.33 kPa, Liquid | 323.92 | –
388.12 K, Liquid, Inclined piston gauge | – | 0.0562
398.12 K, Liquid, Inclined piston gauge | – | 0.0987
400 K, 101.33 kPa, Liquid | 339.6 | –
408.12 K, Liquid, Inclined piston gauge | – | 0.1672
418.12 K, Liquid, Inclined piston gauge | – | 0.2744
420 K, 101.33 kPa, Liquid | 354.94 | –
428.11 K, Liquid, Inclined piston gauge | – | 0.4382
438.11 K, Liquid, Inclined piston gauge | – | 0.6825
440 K, 101.33 kPa, Liquid | 369.98 | –
448.11 K, Liquid, Inclined piston gauge | – | 1.038
458.11 K, Liquid, Inclined piston gauge | – | 1.544
460 K, 101.33 kPa, Liquid | 384.73 | –
464.96 K, Liquid, Twin ebulliometer | – | 2
468.11 K, Liquid, Inclined piston gauge | – | 2.25
472.82 K, Liquid, Twin ebulliometer | – | 2.666
478.11 K, Liquid, Inclined piston gauge | – | 3.216
480 K, 101.33 kPa, Liquid | 399.2 | –
483.11 K, Liquid, Inclined piston gauge | – | 3.821
493.2 K, Liquid, Twin ebulliometer | – | 5.333
500 K, 101.33 kPa, Liquid | 413.42 | –
506.16 K, Liquid, Twin ebulliometer | – | 7.999
515.86 K, Liquid, Twin ebulliometer | – | 10.67
520 K, 101.33 kPa, Liquid | 427.39 | –
523.7 K, Liquid, Twin ebulliometer | – | 13.33
531.86 K, Liquid, Twin ebulliometer | – | 16.66
538.62 K, Liquid, Twin ebulliometer | – | 19.93
547.52 K, Liquid, Twin ebulliometer | – | 25.02
547.53 K, Liquid, Twin ebulliometer | – | 25.02
556.48 K, Liquid, Twin ebulliometer | – | 31.17
565.49 K, Liquid, Twin ebulliometer | – | 38.56
574.56 K, Liquid, Twin ebulliometer | – | 47.37
583.67 K, Liquid, Twin ebulliometer | – | 57.81
592.85 K, Liquid, Twin ebulliometer | – | 70.11
602.07 K, Liquid, Twin ebulliometer | – | 84.53
611.34 K, Liquid, Twin ebulliometer | – | 101.32
620.67 K, Liquid, Twin ebulliometer | – | 120.78
630.05 K, Liquid, Twin ebulliometer | – | 143.23
639.47 K, Liquid, Twin ebulliometer | – | 169
648.95 K, Liquid, Twin ebulliometer | – | 198.46
658.48 K, Liquid, Twin ebulliometer | – | 231.99
668.07 K, Liquid, Twin ebulliometer | – | 269.98

Conditions | mass density [kg/m3]
373 K, 101.33 kPa, Liquid, Pycnometric method | 1090

Conditions | Triple point temperature [K]
Crystal, Adiabatic calorimetry | 356.52
